Measurements published in ChEMBL document CHEMBL1671624, “Efficacy of quinoxaline-2-carboxylate 1,4-di-N-oxide derivatives in experimental tuberculosis” (Antimicrob Agents Chemother, 2008).
Values after ≈ are worked out from the molar mass of the structure shown.

Experiments:
[1] = system: Mycobacterium tuberculosis; experiment: Antibacterial activity against Mycobacterium tuberculosis by microplate Alamar Blue assay; assay type: functional
[2] = Selectivity index, ratio of EC50 for african green monkey Vero cells to MIC for Mycobacterium tuberculosis; assay type: functional
[3] = system: Mycobacterium tuberculosis; experiment: Ratio of EC50 to MIC for Mycobacterium tuberculosis; assay type: functional
[4] = system: Mycobacterium tuberculosis; experiment: Antibacterial activity against Mycobacterium tuberculosis H37Rv by microplate Alamar Blue assay; assay type: functional
[5] = system: Mycobacterium tuberculosis; experiment: Antibacterial activity against p-aminosalicylic acid-resistant Mycobacterium tuberculosis by microplate Alamar Blue assay; assay type: functional
[6] = system: Mycobacterium tuberculosis; experiment: Antibacterial activity against Mycobacterium tuberculosis Erdman infected in gamma interferon gene knockout C57BL/6 mouse assessed as log reduction in bacterial load in spleen at 100 mg/kg, po administered 18 days postinfection for 9 days measured on day 24 relative to control; assay type: functional
[7] = system: Mycobacterium tuberculosis; experiment: Antibacterial activity against Mycobacterium tuberculosis Erdman infected in gamma interferon gene knockout C57BL/6 mouse assessed as log reduction in bacterial load in lung at 300 mg/kg, po administered 18 days postinfection for 9 days measured on day 24 relative to control; assay type: functional
[8] = system: Mycobacterium tuberculosis; experiment: Antibacterial activity against Mycobacterium tuberculosis Erdman infected in gamma interferon gene knockout C57BL/6 mouse assessed as log reduction in bacterial load in spleen at 300 mg/kg, po administered 18 days postinfection for 9 days measured on day 24 relative to control; assay type: functional
Mus musculus [9] = experiment: Toxicity in gamma interferon gene knockout C57BL/6 mouse infected with Mycobacterium tuberculosis Erdman assessed as lethargic at 300 mg/kg, po administered 18 days postinfection for 9 days; assay type: organism-based; set-up: dose 300 mg/kg, route oral; conditions: in vivo
Mus musculus [10] = experiment: Toxicity in gamma interferon gene knockout C57BL/6 mouse infected with Mycobacterium tuberculosis Erdman assessed as with a hunched posture at 300 mg/kg, po administered 18 days postinfection for 9 days; assay type: organism-based; set-up: dose 300 mg/kg, route oral; conditions: in vivo
Blood [11] = experiment: Drug level in C57BL/6 mouse blood at 25 mg/kg, po; assay type: ADME, organism-based; set-up: dose 25 mg/kg, route oral; conditions: in vivo
Blood [12] = experiment: Drug level in C57BL/6 mouse blood at 100 mg/kg, po; assay type: ADME, organism-based; set-up: dose 100 mg/kg, route oral; conditions: in vivo
Blood [13] = experiment: Drug level in C57BL/6 mouse blood at 300 mg/kg, po; assay type: ADME, organism-based; set-up: dose 300 mg/kg, route oral; conditions: in vivo
[14] = Terminal half life in C57BL/6 mouse; assay type: ADME, organism-based; conditions: in vivo, read-out: beta t1/2 (converted)
[15] = system: Mycobacterium tuberculosis; experiment: Antibacterial activity against Mycobacterium tuberculosis H37Rv under aerobic conditions; assay type: functional
[16] = system: Mycobacterium tuberculosis; experiment: Antibacterial activity against Mycobacterium tuberculosis H37Rv under anaerobic conditions by luciferase based low oxygen recovery assay; assay type: functional
[17] = system: Mycobacterium tuberculosis; experiment: Antibacterial activity against Mycobacterium tuberculosis H37Rv assessed as compound concentration required for 99.9% bacterial killing by microplate Alamar Blue assay; assay type: functional
[18] = system: Mycobacterium tuberculosis; experiment: Ratio of […] for Mycobacterium tuberculosis H37Rv; assay type: functional
[19] = Cmax in C57BL/6 mouse serum after 15 to 30 mins at 100 to 200 mg/kg, po; assay type: ADME, organism-based; set-up: dose 100-200 mg/kg, route oral
Mus musculus [20] = experiment: Toxicity in C57BL/6 mouse assessed as acute adverse effects upto 1000 mg/kg, po; assay type: organism-based; set-up: dose 1000 mg/kg, route oral; conditions: in vivo
Mus musculus [21] = experiment: Toxicity in C57BL/6 mouse assessed as acute reactions upto 1000 mg/kg, po; assay type: organism-based; set-up: dose 1000 mg/kg, route oral; conditions: in vivo
[22] = system: Mycobacterium tuberculosis; experiment: Antibacterial activity against Mycobacterium tuberculosis Erdman infected in gamma interferon gene knockout C57BL/6 mouse assessed as bacterial load in lung at 300 mg/kg, po administered 18 days postinfection for 9 days measured on day 24 (Rvb= 4.47+/-0.12 log CFU); assay type: functional
[23] = system: Mycobacterium tuberculosis; experiment: Antibacterial activity against Mycobacterium tuberculosis Erdman infected in gamma interferon gene knockout C57BL/6 mouse assessed as bacterial load in spleen at 300 mg/kg, po administered 18 days postinfection for 9 days measured on day 24 (Rvb= 6.57+/-0.17 log CFU); assay type: functional
[24] = system: Mycobacterium tuberculosis; experiment: Antimicrobial activity against Mycobacterium tuberculosis Erdman by microplate Alamar Blue assay; assay type: functional
[25] = system: Mycobacterium tuberculosis; experiment: Antibacterial activity against Mycobacterium tuberculosis Erdman infected in gamma interferon gene knockout C57BL/6 mouse assessed as log reduction in bacterial load in lung at 25 mg/kg, po administered 18 days postinfection for 9 days measured on day 24 relative to control; assay type: functional
[26] = system: Mycobacterium tuberculosis; experiment: Antibacterial activity against Mycobacterium tuberculosis Erdman infected in gamma interferon gene knockout C57BL/6 mouse assessed as log reduction in bacterial load in spleen at 25 mg/kg, po administered 18 days postinfection for 9 days measured on day 24 relative to control; assay type: functional
[27] = system: Mycobacterium tuberculosis; experiment: Antibacterial activity against Mycobacterium tuberculosis Erdman infected in gamma interferon gene knockout C57BL/6 mouse assessed as log reduction in bacterial load in lung at 100 mg/kg, po administered 18 days postinfection for 9 days measured on day 24 relative to control; assay type: functional
[28] = system: Mycobacterium tuberculosis; experiment: Antibacterial activity against Mycobacterium tuberculosis Erdman infected in gamma interferon gene knockout C57BL/6 mouse assessed as bacterial load in lung at 25 mg/kg, po administered 18 days postinfection for 9 days measured on day 24 (Rvb= 4.47+/-0.12 log CFU); assay type: functional
[29] = system: Mycobacterium tuberculosis; experiment: Antibacterial activity against Mycobacterium tuberculosis Erdman infected in gamma interferon gene knockout C57BL/6 mouse assessed as bacterial load in spleen at 25 mg/kg, po administered 18 days postinfection for 9 days measured on day 24 (Rvb= 6.57+/-0.17 log CFU); assay type: functional

SMILES	MIC [1] [µg/mL]	Selectivity Index [2]	Ratio [3]	MIC [4] [µg/mL]	MIC [5] [µg/mL]	Activity (Mus musculus [20])	Activity (Mus musculus [21])	log10cfu [22]	log10cfu [23]	MIC [24] [µg/mL]	other results
COC(=O)c1c(C)[n+]([O-])c2cc(C)c(C)cc2[n+]1[O-]	3.13 (≈ 11.9 µM)	>20	0.52	3.13 (≈ 11.9 µM)	3.13 (≈ 11.9 µM)						
CCOC(=O)c1c(C)[n+]([O-])c2ccc(Cl)cc2[n+]1[O-]	0.2 (≈ 0.708 µM)	>50	2.3	0.2 (≈ 0.708 µM)		Non-toxic	Non-toxic	4.55	3.95	0.78 (≈ 2.76 µM)	log10cfu [6]: 2.72; log10cfu [7]: 5.58; log10cfu [8]: 5.51; Activity (Mus musculus [9]): Toxic; Activity (Mus musculus [10]): Toxic; Drug uptake (Blood [11]): 3 µg/mL; Drug uptake (Blood [12]): 6 µg/mL; Drug uptake (Blood [13]): 9 µg/mL; half-life [14]: 4 h; MIC [15]: 0.24 µg/mL (≈ 0.849 µM); MIC [16]: 0.42 µg/mL (≈ 1.49 µM); MBC [17]: 2.5 µg/mL (≈ 8.84 µM); Ratio [18]: 4.2; Cmax [19]: 5000 ng/mL; log10cfu [25]: 0.99; log10cfu [26]: 1.61; log10cfu [27]: 2.03
CCOC(=O)c1c(C)[n+]([O-])c2cc(C)c(C)cc2[n+]1[O-]	6.25 (≈ 22.6 µM)	>10	0.46	≤ 3.13							
CCOC(=O)c1c(C)[n+]([O-])c2ccccc2[n+]1[O-]	1.56 (≈ 6.28 µM)	30.13	0.56	1.56 (≈ 6.28 µM)							
COCCOC(=O)c1c(C)[n+]([O-])c2cc(Cl)c(Cl)cc2[n+]1[O-]	0.39 (≈ 1.12 µM)	11.54	>4	≤ 0.2	0.78 (≈ 2.25 µM)	Non-toxic	Non-toxic	8.73	7.18	0.39 (≈ 1.12 µM)	
Cc1c(C(=O)OCc2ccccc2)[n+]([O-])c2cc(Cl)c(Cl)cc2[n+]1[O-]	0.2 (≈ 0.527 µM)	29	14.35	0.39 (≈ 1.03 µM)		Non-toxic	Non-toxic	8.07	7.17	0.1 (≈ 0.264 µM)	
Cc1c(C(=O)OCc2ccccc2)[n+]([O-])c2cc(Cl)ccc2[n+]1[O-]	0.1 (≈ 0.29 µM)	76.9	0.01			Non-toxic	Non-toxic	7.21	6.62	0.1 (≈ 0.29 µM)	
O=[N+]([O-])c1cn2c(n1)OC[C@@H](OCc1ccc(OC(F)(F)F)cc1)C2 [PRETOMANID]											MIC [15]: 0.1 µg/mL (≈ 0.278 µM); MIC [16]: 1.4 µg/mL (≈ 3.9 µM)
O=C(Nc1ccc([N+](=O)[O-])cc1Cl)c1cc(Cl)ccc1O [NICLOSAMIDE]											MIC [15]: 0.28 µg/mL (≈ 0.856 µM); MIC [16]: 0.32 µg/mL (≈ 0.978 µM)
Cc1c(C(=O)OCc2ccccc2)[n+]([O-])c2ccccc2[n+]1[O-]	0.1 (≈ 0.322 µM)	470	1.5	0.2 (≈ 0.645 µM)	0.2 (≈ 0.645 µM)	Non-toxic	Non-toxic	7.41	6.96	0.1 (≈ 0.322 µM)	
NNC(=O)c1ccncc1 [ISONIAZID]											log10cfu [28]: 4.47; log10cfu [29]: 2.2; log10cfu [25]: 3.33; log10cfu [26]: 5.04
Cc1ccc2c(c1)[n+]([O-])c(C(=O)OCc1ccccc1)c(C)[n+]2[O-]	0.39 (≈ 1.2 µM)	143.7	2.9	0.39 (≈ 1.2 µM)	0.78 (≈ 2.4 µM)	Non-toxic	Non-toxic	7.17	6.63	0.78 (≈ 2.4 µM)	
COC(=O)c1c(C)[n+]([O-])c2ccc(C)cc2[n+]1[O-]	1.56 (≈ 6.28 µM)	>40.06	1.24	3.13 (≈ 12.6 µM)	3.13 (≈ 12.6 µM)						
CCOC(=O)c1c(C)[n+]([O-])c2cc(Cl)c(Cl)cc2[n+]1[O-]	0.2 (≈ 0.631 µM)	>20	>3.15	0.2 (≈ 0.631 µM)		Non-toxic	Non-toxic	7.64	6.75	0.39 (≈ 1.23 µM)	
CCOC(=O)c1c(C)[n+]([O-])c2ccc(C)cc2[n+]1[O-]	1.56 (≈ 5.95 µM)	>40.06	1.4	3.13 (≈ 11.9 µM)	3.13 (≈ 11.9 µM)						
